Measurements taken from patent publication US12054560B2, “Bifunctional molecules recruiting antibodies and targeting cancer cells” (JIANGNAN UNIVERSITY, priority 2017, dated 2024).
One block for each molecule: values may come before it. Bridge positions count the residues as written; N and C are the ends. Ends that are not written are not given here.

Assays:
HUVEC cells [1] = assay: CDC assay on HUVEC cells; assay type: cell-based; conditions: 250 nM, anti-DNP antibody, 10% complement, cck8 method, FIG. 9
Experimental: CDC assay implementation: (1) HUVEC cells were seeded in 96-well plates at a concentration of 5,000 cells/well. After the cells were fully attached, added with NGR oligopeptide (NGR peptide, amino acid sequence: GGG-cyclo-(CNGRC) (SEQ ID NO:8)) or NGR-DNP compound at a final concentration of 250 nM and added a certain concentration of anti-DNP antibody at the same time. After 2 hours of incubation at 37° C., a final concentration of 10% of the complement solution was added and incubated for 1 hour at 37° C. After the incubation, the cell viability was measured by the cck8 method.

[2] = tested on: HUVEC (high expression of CD13); assay: Flow cytometry, recruitment of anti-DNP antibody on HUVEC cells; assay type: cell-based; conditions: 250 nM, anti-DNP antibody 20 μg/mL, FIG. 9
Experimental: Cell assay implementation: cell culture: commercial cells HUVEC (high expression of CD13) was cultured in DMEM complete medium. All cell culture conditions were 37° C., 5% CO2. Flow cytometry assay: (1) The cells were digested with trypsin, resuspended in flow medium diluted to 1×10^5 cells. 400 μL of cells (40,000 cells) were added to a sterile EP tube. (2) NGR oligopeptide (NGR peptide, amino acid sequence: GGG-cyclo-(CNGRC) (SEQ ID NO:8)) or NGR-DNP were added at a final concentration of 250 nM. In the negative control group, cells were treated with PBS. The cells were added anti-DNP (anti-DNP) antibody at a concentration of 20 μg/mL in all groups, incubate on ice for 1 h. then the cells were washed and incubated with fluorescent secondary antibody for 0.5 h. (3) The cells were thoroughly washed gently with a flow buffer, resuspended, and analyzed by instruments.

HUVEC cells [3] = assay: ADCC assay on HUVEC cells; assay type: cell-based; conditions: 250 nM, anti-DNP antibody, PBMC, LDH method, FIG. 9
Experimental: ADCC assay implementation: (1) HUVEC cells were seeded in 96-well plates at a concentration of 10,000 cells/well. After the cells were fully attached, added with NGR oligopeptide (NGR peptide, amino acid sequence: GGG-cyclo-(CNGRC) (SEQ ID NO:8)) or NGR-DNP compound at a final concentration of 250 nM and immediately added a certain concentration of anti-DNP antibody. (2) After incubation for a period of time, freshly extracted PBMC cells were added at a certain effect target ratio for a certain period of time. (3) The supernatant was removed by centrifugation, and cytotoxicity was measured by the LDH method.

CD13 receptor, P15144 = biological target: T1, CD13 receptor, P15144; assay: cell-based or functional assay
T1 chain: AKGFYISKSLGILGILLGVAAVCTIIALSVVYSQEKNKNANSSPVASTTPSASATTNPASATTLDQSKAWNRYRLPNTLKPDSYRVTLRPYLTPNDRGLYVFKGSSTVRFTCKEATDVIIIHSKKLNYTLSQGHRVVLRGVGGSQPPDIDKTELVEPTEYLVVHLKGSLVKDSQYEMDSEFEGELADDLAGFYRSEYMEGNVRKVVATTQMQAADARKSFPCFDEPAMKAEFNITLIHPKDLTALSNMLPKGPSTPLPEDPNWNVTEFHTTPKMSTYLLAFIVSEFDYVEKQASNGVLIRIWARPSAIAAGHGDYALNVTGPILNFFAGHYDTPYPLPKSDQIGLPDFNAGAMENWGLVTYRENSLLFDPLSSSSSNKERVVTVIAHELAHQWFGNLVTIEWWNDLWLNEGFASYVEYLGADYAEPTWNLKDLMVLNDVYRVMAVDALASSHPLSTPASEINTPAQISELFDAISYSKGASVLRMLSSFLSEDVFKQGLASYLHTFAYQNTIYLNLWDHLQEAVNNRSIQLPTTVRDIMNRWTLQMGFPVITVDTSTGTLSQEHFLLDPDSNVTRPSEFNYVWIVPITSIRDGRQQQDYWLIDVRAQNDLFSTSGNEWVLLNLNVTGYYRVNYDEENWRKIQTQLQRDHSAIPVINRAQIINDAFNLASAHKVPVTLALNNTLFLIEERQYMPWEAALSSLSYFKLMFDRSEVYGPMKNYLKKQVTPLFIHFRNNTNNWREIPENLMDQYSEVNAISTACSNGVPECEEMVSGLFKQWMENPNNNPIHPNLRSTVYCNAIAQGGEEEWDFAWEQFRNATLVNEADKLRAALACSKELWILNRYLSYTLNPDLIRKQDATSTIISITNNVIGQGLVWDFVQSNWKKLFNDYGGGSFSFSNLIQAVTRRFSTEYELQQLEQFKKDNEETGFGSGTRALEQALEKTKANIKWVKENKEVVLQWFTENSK

[4] = tested on: SKBR3 (HER2 positive) cells; assay: Flow cytometry, recruitment of anti-Rha IgG on SKBR3 cells; assay type: cell-based; conditions: 250 nM, Alexa 488-conjugated rabbit anti-Rha IgG, FIG. 5
Experimental: SKBR3 (HER2 positive) and MCF7 cells (HER2 negative) were grown in DMEM supplemented with 10% FBS, 1% penicillin-streptomycin. All cells were cultured at 37° C. in a 5% CO2 humidified atmosphere.
(1) Cells were cultured and detached with trypsin-EDTA and then resuspended to 1.0×10^5 cells/mL. Forty thousand of these cells were added into tubes. (2) Nanobody C7b and Rha conjugated C7b were then added to a final concentration of 250 nM, followed which Alexa 488-conjugated rabbit anti-Rha IgG antibodies were added. In the negative control group, cells were treated with PBS instead of nanobody. These cells were incubated on ice for 60 min, (3) washed with flow cytometry buffer and then analyzed using an Accuri C6 flow cytometer.

Molecule: NGR-DNP: DNP-TEG-COOH coupled to peptide GGGCNGRC, oxidized with iodine to the cyclic form (GGGCNGRC-OH; disulfide 4-8 (inferred); also: DNP-TEG-COOH coupled to peptide, site not given here)
CDC cell lysis rate (HUVEC cells [1]): approximately 60% | recruitment of antibodies and targeting of tumor cells [2]: can recruit antibodies and target tumor cells | ADCC cell lysis rate (HUVEC cells [3]): approximately 60%

CDC and ADCC cell lysis rate (CD13 receptor, P15144): 60%
B1: NGR-DNP (peptide)
peptide: GGGCNGRC
modifications: not checked

B2: C7b: anti-HER2 nanobody C7b, SEQ ID NO: 2 (related NCBI sequence ID: AFN61318.1) (protein)
VHH: MQVQLVQSGGGLVQAGGSLRLSCAASGRTFSSYAMAWFRQAPGKEREFVAAISWSGANIYVADSVKGRFTISRDNAKDTVYLQMNSLKPEDTAVYYCAVKLGFAPVEERQYDYWGQGTQVTVSSLPETGG
modifications: The HER2-specific nanobody C7b sequence was genetically engineered to contain at its C-terminus a sorting signal for further sortase A-mediated ligation.
fluorescence intensity increase compared to negative control (accumulation of anti-Rha IgGs on cells) [4]: no fluorescence intensity increase
